Measurements published in ChEMBL document CHEMBL1177764, “Exploration of potential prodrug approach of the bis-thiazolium salts T3 and T4 for orally delivered antimalarials” (Bioorg Med Chem Lett, 2010).

Key:
Plasmodium vinckei [1] = assay: Antimalarial activity against Plasmodium vinckei infected in perorally dosed mice (Mus musculus); type: functional; conditions: po
Plasmodium falciparum = assay: Antiplasmodial activity against Plasmodium falciparum; type: functional, organism-based
Plasmodium vinckei [2] = assay: Antimalarial activity against Plasmodium vinckei infected in intraperitoneally dosed mice (Mus musculus); type: functional; conditions: ip

Compound | ED50 (Plasmodium vinckei [1]) | IC50 (Plasmodium falciparum) | ED50 (Plasmodium vinckei [2])
C/C(=C1\CCOC(=S)S1)N(C=O)CCCCCCCCCCCCN(C=O)/C(C)=C1/CCOC(=S)S1 | > 30 mg/kg | 4400 nM | –
COCC/C(SC(C)=O)=C(\C)N(C=O)CCCCCCCCCCCCN(C=O)/C(C)=C(/CCOC)SC(C)=O | – | 1.1 nM | –
CCC(=O)S/C(CCOC)=C(/C)N(C=O)CCCCCCCCCCCCN(C=O)/C(C)=C(/CCOC)SC(=O)CC | 12 mg/kg | 4.3 nM | < 0.1 mg/kg
COCC/C(SC(=O)C(C)C)=C(\C)N(C=O)CCCCCCCCCCCCN(C=O)/C(C)=C(/CCOC)SC(=O)C(C)C | 11 mg/kg | 1.1 nM | 0.12 mg/kg
COCC/C(SC(=O)C1CC1)=C(\C)N(C=O)CCCCCCCCCCCCN(C=O)/C(C)=C(/CCOC)SC(=O)C1CC1 | 16 mg/kg | 2 nM | –
COCC/C(SC(=O)CC(C)C)=C(\C)N(C=O)CCCCCCCCCCCCN(C=O)/C(C)=C(/CCOC)SC(=O)CC(C)C | 16 mg/kg | 2.4 nM | –
COCC/C(SC(=O)C(C)(C)C)=C(\C)N(C=O)CCCCCCCCCCCCN(C=O)/C(C)=C(/CCOC)SC(=O)C(C)(C)C | – | 6.7 nM | –
COCC/C(SC(=O)C1CCC1)=C(\C)N(C=O)CCCCCCCCCCCCN(C=O)/C(C)=C(/CCOC)SC(=O)C1CCC1 | – | 3.6 nM | –
COCC/C(SC(=O)C1CCCC1)=C(\C)N(C=O)CCCCCCCCCCCCN(C=O)/C(C)=C(/CCOC)SC(=O)C1CCCC1 | 17 mg/kg | 8.2 nM | 0.65 mg/kg
C/C=C/CC(=O)S/C(CCOC)=C(/C)N(C=O)CCCCCCCCCCCCN(C=O)/C(C)=C(/CCOC)SC(=O)C/C=C/C | 16 mg/kg | 3.3 nM | –
COCC/C(SC(=O)c1ccccc1)=C(\C)N(C=O)CCCCCCCCCCCCN(C=O)/C(C)=C(/CCOC)SC(=O)c1ccccc1 | 15 mg/kg | 1.7 nM | < 0.5 mg/kg
COCC/C(SC(=O)c1ccccc1C)=C(\C)N(C=O)CCCCCCCCCCCCN(C=O)/C(C)=C(/CCOC)SC(=O)c1ccccc1C | 24 mg/kg | 110 nM | 0.25 mg/kg
COCC/C(SC(=O)c1ccccc1C(F)(F)F)=C(\C)N(C=O)CCCCCCCCCCCCN(C=O)/C(C)=C(/CCOC)SC(=O)c1ccccc1C(F)(F)F | > 90 mg/kg | 2200 nM | > 2.5 mg/kg
COCC/C(SC(=O)COC)=C(\C)N(C=O)CCCCCCCCCCCCN(C=O)/C(C)=C(/CCOC)SC(=O)COC | 80 mg/kg | 2.3 nM | 1.9 mg/kg
COCC/C(SC(=O)Cc1ccco1)=C(\C)N(C=O)CCCCCCCCCCCCN(C=O)/C(C)=C(/CCOC)SC(=O)Cc1ccco1 | 14 mg/kg | 1.6 nM | –
COCC/C(SC(=O)CCC(=O)OC)=C(\C)N(C=O)CCCCCCCCCCCCN(C=O)/C(C)=C(/CCOC)SC(=O)CCC(=O)OC | 10 mg/kg | 5.9 nM | 0.4 mg/kg
COCC/C(SC(=O)CCC(C)=O)=C(\C)N(C=O)CCCCCCCCCCCCN(C=O)/C(C)=C(/CCOC)SC(=O)CCC(C)=O | 3 mg/kg | 1.6 nM | 0.15 mg/kg
COCC/C(SC(=O)C(C)(C)OC(C)=O)=C(\C)N(C=O)CCCCCCCCCCCCN(C=O)/C(C)=C(/CCOC)SC(=O)C(C)(C)OC(C)=O | 57 mg/kg | 15.6 nM | 60.3 mg/kg
COCC/C(SC(=O)c1ccc(CN2CCOCC2)cc1)=C(\C)N(C=O)CCCCCCCCCCCCN(C=O)/C(C)=C(/CCOC)SC(=O)c1ccc(CN2CCOCC2)cc1 | 90 mg/kg | 1.5 nM | 3.4 mg/kg
COCC/C(SC(=O)C1CCCN1)=C(\C)N(C=O)CCCCCCCCCCCCN(C=O)/C(C)=C(/CCOC)SC(=O)C1CCCN1 (centres undefined) | 17 mg/kg | 2.8 nM | –

Compound | ED50 (Plasmodium vinckei [1]) | IC50 (Plasmodium falciparum) | ED50 (Plasmodium vinckei [2])
COCC/C(SC(=O)c1cccnc1)=C(\C)N(C=O)CCCCCCCCCCCCN(C=O)/C(C)=C(/CCOC)SC(=O)c1cccnc1 | < 30 mg/kg | 2.1 nM | –
COCCc1sc[n+](CCCCCCCCCCCC[n+]2csc(CCOC)c2C)c1C.[Br-].[Br-] | 8.1 mg/kg | – | 0.14 mg/kg
CCOC(=O)S/C(CCOC)=C(/C)N(C=O)CCCCCCCCCCCCN(C=O)/C(C)=C(/CCOC)SC(=O)OCC | 6.3 mg/kg | 2.9 nM | 0.21 mg/kg
COCC/C(SC(=O)OC(C)C)=C(\C)N(C=O)CCCCCCCCCCCCN(C=O)/C(C)=C(/CCOC)SC(=O)OC(C)C | 6.8 mg/kg | 6.2 nM | < 0.1 mg/kg
CCCCOC(=O)S/C(CCOC)=C(/C)N(C=O)CCCCCCCCCCCCN(C=O)/C(C)=C(/CCOC)SC(=O)OCCCC | 16 mg/kg | 5.6 nM | –
COCC/C(SC(=O)Oc1ccccc1)=C(\C)N(C=O)CCCCCCCCCCCCN(C=O)/C(C)=C(/CCOC)SC(=O)Oc1ccccc1 | 24 mg/kg | 3.5 nM | 0.3 mg/kg
COCC/C(SC(=O)Oc1ccc([N+](=O)[O-])cc1)=C(\C)N(C=O)CCCCCCCCCCCCN(C=O)/C(C)=C(/CCOC)SC(=O)Oc1ccc([N+](=O)[O-])cc1 | > 30 mg/kg | 3.1 nM | –
COCC/C(SC(=O)OC(C)Cl)=C(\C)N(C=O)CCCCCCCCCCCCN(C=O)/C(C)=C(/CCOC)SC(=O)OC(C)Cl (centres undefined) | 13 mg/kg | 10.6 nM | 0.11 mg/kg
COCC/C(SC(=O)OCCBr)=C(\C)N(C=O)CCCCCCCCCCCCN(C=O)/C(C)=C(/CCOC)SC(=O)OCCBr | 13 mg/kg | 2.7 nM | –
COCC/C(SC(=O)OCCF)=C(\C)N(C=O)CCCCCCCCCCCCN(C=O)/C(C)=C(/CCOC)SC(=O)OCCF | 3.8 mg/kg | 2.2 nM | 0.1 mg/kg
COCC/C(SC(=O)N1CCCC1)=C(\C)N(C=O)CCCCCCCCCCCCN(C=O)/C(C)=C(/CCOC)SC(=O)N1CCCC1 | > 90 mg/kg | 310 nM | > 5 mg/kg
COCC/C(SC(=O)N1CCCC1=O)=C(\C)N(C=O)CCCCCCCCCCCCN(C=O)/C(C)=C(/CCOC)SC(=O)N1CCCC1=O | 12 mg/kg | 29.5 nM | 0.9 mg/kg
C/C(=C(\CCOC(=O)C(C)C)SC(=O)C(C)C)N(C=O)CCCCCCCCCCCCN(C=O)/C(C)=C(/CCOC(=O)C(C)C)SC(=O)C(C)C | 60 mg/kg | 7 nM | 1.2 mg/kg
COC(=O)CCC(=O)OCC/C(SC(=O)CCC(=O)OC)=C(\C)N(C=O)CCCCCCCCCCCCN(C=O)/C(C)=C(/CCOC(=O)CCC(=O)OC)SC(=O)CCC(=O)OC | 13 mg/kg | 48 nM | 0.5 mg/kg
COc1ccc(C(=O)OCC/C(SC(=O)c2ccc(OC)c(OC)c2OC)=C(\C)N(C=O)CCCCCCCCCCCCN(C=O)/C(C)=C(/CCOC(=O)c2ccc(OC)c(OC)c2OC)SC(=O)c2ccc(OC)c(OC)c2OC)c(OC)c1OC | > 60 mg/kg | 16.5 nM | 1.8 mg/kg
C/C(=C(\CCOC(=O)c1ccccc1C)SC(=O)c1ccccc1C)N(C=O)CCCCCCCCCCCCN(C=O)/C(C)=C(/CCOC(=O)c1ccccc1C)SC(=O)c1ccccc1C | > 180 mg/kg | 3500 nM | > 20 mg/kg
C/C(=C1\CCOC(=O)S1)N(C=O)CCCCCCCCCCCCN(C=O)/C(C)=C1/CCOC(=O)S1 | 5 mg/kg | 2.2 nM | 0.25 mg/kg
COCC/C(SC(=O)OC)=C(\C)N(C=O)CCCCCCCCCCCCN(C=O)/C(C)=C(/CCOC)SC(=O)OC | 1.3 mg/kg | 1.85 nM | 0.072 mg/kg
Cc1c(CCO)sc[n+]1CCCCCCCCCCCC[n+]1csc(CCO)c1C.[Br-].[Br-] [ALBITIAZOLIUM BROMIDE] | 13 mg/kg | – | 0.2 mg/kg
